Data as given in article PMC9666501, “Screening for effective cell-penetrating peptides with minimal impact on epithelial cells and gut commensals in vitro” (Frontiers in Pharmacology, 2022).
Entries after “also recorded” stand apart in the source; their conditions may differ. No end group written: not given here.

Tests used:
[1] = system: Escherichia coli K12 MG 1655; experiment: Broth microdilution antimicrobial assay; assay type: cell-based; details: microbroth dilution in mGAM, aerobic with shaking, 37 °C, 24 h, OD600, CPP 0.01-100 µM
Procedure: (§1) Gut commensal microbial strains used in this study (Table 2) were purchased from […] (ATCC) and DSMZ, Germany. The growth and screening experiments were performed in modified Gifu Anaerobic Medium (mGAM) (HyServe GmbH and Co.) as all the strains could grow well in this media. mGAM was pre-reduced for a minimum of 1 day in the anaerobic chamber (Coy laboratory products Inc.) before use.
(§2) The antimicrobial effects of CPPs were determined by performing microbroth dilution method. The overnight cultures of the strains were diluted 100-fold in mGAM broth and 100 µL of the diluted cultured were distributed in the 96-well microplate. Next, 100 µL of CPPs in their respective concentrations were added to respective wells. Plates were incubated aerobically (Escherichia coli Nissle, Escherichia coli K12, and Saccharomyces boulardii) or anaerobically (rest of the strains) at 37 °C for 24 h with or without shaking, respectively. Reading of each plate was performed by measuring the optical density (OD) at 600 nm in a microplate reader (Synergy™ H1 BioTek). The final absorbance values were normalized and represented as values between 0 and 1 as a heat map, where 0 being full inhibition and 1 being no inhibition. The MIC was determined as the minimum concentration of the CPPs at which no significant growth of the strain was observed as compared to medium only (blank).

[2] = system: Bifidobacterium adolescentis DSM 20083; experiment: Broth microdilution antimicrobial assay; assay type: cell-based; details: microbroth dilution in mGAM, anaerobic, 37 °C, 24 h, OD600, CPP 0.01-100 µM
Procedure: as §1, §2

[3] = system: Latilactobacillus sakei ATCC 15521; experiment: Broth microdilution antimicrobial assay; assay type: cell-based; details: microbroth dilution in mGAM, anaerobic, 37 °C, 24 h, OD600, CPP 0.01-100 µM
Procedure: as §1, §2

[4] = system: Escherichia coli Nissle 1917 (Mutaflor); experiment: Broth microdilution antimicrobial assay; assay type: cell-based; details: microbroth dilution in mGAM, aerobic with shaking, 37 °C, 24 h, OD600, CPP 0.01-100 µM
Procedure: as §1, §2

[5] = system: Lactobacillus gasseri DSM 20077; experiment: Broth microdilution antimicrobial assay; assay type: cell-based; details: microbroth dilution in mGAM, anaerobic, 37 °C, 24 h, OD600, CPP 0.01-100 µM
Procedure: as §1, §2

[6] = system: Bacteroides vulgatus ATCC 8482; experiment: Broth microdilution antimicrobial assay; assay type: cell-based; details: B. vulgatus; microbroth dilution in mGAM, anaerobic, 37 °C, 24 h, OD600; CPP 0.01-100 µM
Procedure: as §1, §2

[7] = system: Clostridium bolteae DSM 29485; experiment: Broth microdilution antimicrobial assay; assay type: cell-based; details: microbroth dilution in mGAM, anaerobic, 37 °C, 24 h, OD600, CPP 0.01-100 µM
Procedure: as §1, §2

[8] = system: Bifidobacterium longum ATCC 15697; experiment: Broth microdilution antimicrobial assay; assay type: cell-based; details: microbroth dilution in mGAM, anaerobic, 37 °C, 24 h, OD600, CPP 0.01-100 µM
Procedure: as §1, §2

[9] = system: Bacteroides thetaiotaomicron DSM 2079; experiment: Broth microdilution antimicrobial assay; assay type: cell-based; details: B. thetaiotaomicron; microbroth dilution in mGAM, anaerobic, 37 °C, 24 h, OD600; CPP 0.01-100 µM
Procedure: as §1, §2

[10] = system: Caco-2 monolayers; details: cited from earlier work
Procedure: (§3) In the present work we systematically screened for effective CPPs that promote intestinal permeation through paracellular route and have negligible or no harmful effects against human epithelial cells and gut microbial strains. […] The results from the cytotoxicity and cell viability assays were in concordance except for RRL helix and PN159 at 5 µM. This minor difference most likely has to do with the sensitivity of the assay. The reducing capacity of the cells (as measured by AlamarBlue) is not the same as membrane integrity (as measured by Cytotoxic Red).

[11] = system: Caco-2 cells; experiment: AlamarBlue cell viability assay; assay type: cell-based, human; details: for Cell viability (AlamarBlue, % live cells vs control): CPP 5 µM, 1 h treatment (legend; method says 2 h), 37°C, fluorescence 560/590 nm, n = 3; for Cell toxicity and viability: CPP 50 µM, Cytotox Red and AlamarBlue assays
Procedure: (§4) Caco-2 cells were seeded (6 × 10^3 cells/well) in Corning™ Costar™ 96-Well, Cell Culture-Treated, Flat-Bottom Microplate and grown at 37°C with 5% CO2 until reaching confluence. For alamarBlue cell viability staining, cells were exposed to treatments (DMEM + AlamarBlue (10 µL) + CPPs) at different concentrations and incubated for 2 h at 37°C with 5% CO2. Fluorescence was measured with microplate reader Synergy™ H1 BioTek; (excitation wavelength: 560 nm, emission wavelength: 590 nm) and a curve of Relative Fluorescence Units (RFU) against different concentrations of CPPs was plotted.

[12] = system: 10 commensal gut microbial strains; experiment: Broth microdilution antimicrobial assay, panel summary; assay type: cell-based; details: range over the strains that were totally inhibited; mGAM, 37 °C, 24 h
Procedure: as §1, §2

[13] = system: Caco-2 monolayers; experiment: FITC-dextran translocation assay; assay type: cell-based, human; details: for Paracellular permeability of FITC-dextran (Papp A-B): Caco-2 monolayers 21 days, each CPP at a concentration without cytotoxicity, apical, 1 h, 37 °C, pH 7.4, then 1 mg/ml FITC-dextran 4 for 30 min, fluorescence, n = 3; for Paracellular permeability (TEER and FITC-dextran assays collectively) / FITC-dextran translocation: Caco-2 monolayers; for Paracellular permeability (TEER and FITC-dextran assays collectively): in the concentrations tested; for FITC-dextran translocation: CPP 100 µM
Procedure: (§5) For Fluorescein Isothiocyanate (FITC)-Dextran permeability experiments, Caco-2 monolayers differentiated for 21 days were transferred to 12-well plates containing 1.5 ml phenol red free DMEM media (pH 7.4) in the basal compartments. For the treatment, medium in the apical compartment was replaced by 0.5 ml phenol red free DMEM medium containing different concentrations of CPPs, and the plates were incubated at 37 °C for 1 h. Post treatment, inserts were transferred to a new 12-well plate containing 1.5 ml fresh phenol red free DMEM and the apical medium was replaced by medium containing 1 mg/ml FITC-dextran 4 (Sigma-Aldrich). The incubation with the permeability marker lasted for 30 min. Samples were collected from the basolateral compartments post incubation and fluorescence was measured using multi-well fluorescent plate reader (Synergy; excitation wavelength: 490 nm, emission wavelength: 520 nm). The concentration of FITC-dextran in the samples was calculated by comparing the relative fluorescence values to the FITC-dextran standard curve. The apparent permeability coefficient (Papp, cm/s) was calculated according to Eq. 1. Papp=dQ/dt×1/(A×C0), (1) Where dQ/dt is the drug permeation rate (μg/s); a is the surface area of the inserts (cell monolayer) (cm^2); and C0 is the initial concentration at the apical side (μg/ml).

[14] = system: Caco-2 cells; assay type: cell-based; details: CPP 1, 5, 10, 50, 100 µM in DMEM, 1 h treatment (legend; method says 2 h), 37°C, Incucyte imaging, n = 2
Procedure: as §4, with “For alamarBlue cell viability staining, cells were exposed to treatments (DMEM + AlamarBlue (10 µL) + CPPs) at different concentrations and incubated for 2 h at 37°C with 5% CO2.” left out
[…] The cells were then imaged using the Incucyte® Live-Cell analysis instrument. Cytotox Red dye dilution: The dye was diluted to a stock concentration of 100 µM in PBS. This was further diluted in full media to yield a final concentration of 250 nM before adding to the cells.

[15] = system: Saccharomyces cerevisiae; parameters: method as in Palm et al in 2006; details: ref Palm et al in 2006; cited from earlier work
[16] = system: Caco-2 monolayers; experiment: Transepithelial electrical resistance (TEER) of Caco-2 monolayers; assay type: cell-based, human; details: for Change in TEER values after 1 h treatment with CPPs: Caco-2 monolayers differentiated 21 days, each CPP at a concentration without cytotoxicity, 37 °C, n = 3, p < 0.01 vs no treatment; for Reduction in TEER: Caco-2 monolayers, CPP 100 µM
Procedure: Transepithelial electrical resistance (TEER) represents the barrier integrity and permeability of the Caco-2 monolayers. To measure TEER, cells were seeded and grown on 12-well cell culture inserts ([…], 1.1 cm, polyethylene terephthalate membrane, cellQART) for a period of 21 days. TEER was measured using Millicell® ERS-2 Voltohmeter (MERS00002), combined with a STX-04 electrode. Final TEER values were expressed relative to the surface area of the inserts (ΩTotal - ΩInsert X cm^2). TEER values were monitored every day from day 14 until day 21, before, and after permeability experiments. On day 21 of differentiation, TEER values of the monolayers were 600 ± 50 Ω X cm^2 (mean ± SD; n = 48).
as §5

[17] = rats, without damaging the epithelial barrier integrity, ref Kamei et al., 2008, Morishita et al., Bocsik et al., 2019; cited from earlier work
Procedure: as §3

CC(C)C[C@H](NC(=O)[C@H](C)NC(=O)[C@H](CCCCN)NC(=O)[C@H](CC(C)C)NC(=O)[C@H](C)NC(=O)[C@H](CC(C)C)NC(=O)[C@H](CCCCN)NC(=O)[C@H](CC(C)C)NC(=O)[C@H](C)NC(=O)[C@H](CC(C)C)NC(=O)[C@@H](N)CCCCN)C(=O)N[C@@H](CCCCN)C(=O)N[C@@H](C)C(=O)N[C@@H](C)C(=O)N[C@@H](CC(C)C)C(=O)N[C@@H](CCCCN)C(=O)N[C@@H](CC(C)C)C(=O)N[C@@H](C)C(N)=O [PN159]
Minimum inhibitory concentration (MIC) [1]: 5 µM
Minimum inhibitory concentration (MIC) [2]: 10 µM
Minimum inhibitory concentration (MIC) [3]: 1 µM
Minimum inhibitory concentration (MIC) [4]: 50 µM
Minimum inhibitory concentration (MIC) [5]: 5 µM
Minimum inhibitory concentration (MIC) [6]: 10 µM
Minimum inhibitory concentration (MIC) [7]: 1 µM
Minimum inhibitory concentration (MIC) [8]: 1 µM
Minimum inhibitory concentration (MIC) [9]: 10 µM
Paracellular permeability of Caco-2 monolayers via tight junction modulation ([10]; CPP 3 µM, ref Bocsik et al in 2019): significantly improve paracellular permeability of Caco-2 monolayers
Cell viability (AlamarBlue, % live cells vs control) [11]: no significant toxic effect; also recorded: no significant effect on cell viability
MICs over the totally inhibited strains of the panel [12]: 1 to 50 µM
Paracellular permeability of FITC-dextran (Papp A-B) [13]: highest paracellular permeability
Cytotoxicity (Cytotox Red dye staining, dead cells) [14]: toxic at 5 µM; also recorded: Toxicity from 5 μM

KWFKIQMQIRRWKNKR [Penetramax]
Minimum inhibitory concentration (MIC) [3]: 100 µM
Minimum inhibitory concentration (MIC) [7]: 100 µM
Minimum inhibitory concentration (MIC) [8]: 10 µM
Cell toxicity and viability [11]: without having significant effects on cell toxicity and viability
Paracellular permeability of FITC-dextran (Papp A-B) [13]: highest paracellular permeability
Cytotoxicity (Cytotox Red dye staining, dead cells) [14]: significant toxicity only at the highest concentration tested (100 µM)

LLIILRRRIRKQAHAHSK [pVEC, Protein derived cell-penetrating peptide]
Concentration without inhibition of growth [15]: > 25 µM
Paracellular permeability (TEER and FITC-dextran assays collectively) [13]: did not exhibit paracellular permeability
Change in TEER values after 1 h treatment with CPPs [16]: significant reduction in TEER values

RQIKIWFQNRRMKWKK [Penetratin, Protein derived cell-penetrating peptide]
Paracellular permeability of Caco-2 monolayers [10]: did not improve paracellular permeability
Concentration without inhibition of growth [15]: > 25 µM
Permeabilizing effect in the Caco-2 monolayer setup [13]: no permeabilizing effect
Paracellular permeability (TEER and FITC-dextran assays collectively) [13]: did not exhibit paracellular permeability
Change in TEER values after 1 h treatment with CPPs [16]: significant reduction in TEER values

RRLRRLLRRLRRLLRRLR [RRL helix]
Minimum inhibitory concentration (MIC) [2]: 100 µM
Minimum inhibitory concentration (MIC) [3]: 50 µM
Minimum inhibitory concentration (MIC) [4]: 50 µM
Minimum inhibitory concentration (MIC) [7]: 10 µM
Minimum inhibitory concentration (MIC) [8]: 5 µM
Cell viability (AlamarBlue, % live cells vs control) [11]: no significant toxic effect
MICs over the totally inhibited strains of the panel [12]: 5 to 100 µM
Paracellular permeability of FITC-dextran (Papp A-B) [13]: highest paracellular permeability
Cytotoxicity (Cytotox Red dye staining, dead cells) [14]: toxic at 5 µM; also recorded: Toxicity from 5 μM

RRRRRRRR [R8, Synthetic oligoarginine cell-penetrating peptide]
Intestinal absorption of therapeutic peptides [17]: effective tools at improving intestinal absorption of therapeutic peptides
FITC-dextran translocation [13]: did not observe reduction in TEER or elevated FITC-dextran translocation
Paracellular permeability (TEER and FITC-dextran assays collectively) [13]: did not exhibit paracellular permeability
Reduction in TEER [16]: did not observe reduction in TEER

RRRRRRRRR [R9, Synthetic oligoarginine cell-penetrating peptide]
Intestinal absorption of therapeutic peptides [17]: effective tools at improving intestinal absorption of therapeutic peptides
FITC-dextran translocation [13]: did not observe reduction in TEER or elevated FITC-dextran translocation
Paracellular permeability (TEER and FITC-dextran assays collectively) [13]: did not exhibit paracellular permeability
Reduction in TEER [16]: did not observe reduction in TEER

RWFKIQMQIRRWKNKK [Shuffle]
Minimum inhibitory concentration (MIC) [3]: 100 µM
Minimum inhibitory concentration (MIC) [7]: 50 µM
Minimum inhibitory concentration (MIC) [8]: 10 µM
Cell toxicity and viability [11]: without having significant effects on cell toxicity and viability
Paracellular permeability of FITC-dextran (Papp A-B) [13]: highest paracellular permeability
Cytotoxicity (Cytotox Red dye staining, dead cells) [14]: significant toxicity only at the highest concentration tested (100 µM)

YGRKKRRQRRR [Tat]
Permeabilizing effect in the Caco-2 monolayer setup [13]: no permeabilizing effect
Paracellular permeability (TEER and FITC-dextran assays collectively) [13]: did not exhibit paracellular permeability
